Reference: article PMC7582476, “Discovery of Novel Indoleamine 2,3-Dioxygenase 1 (IDO1) and Histone Deacetylase 1 (HDAC1) Dual Inhibitors Derived from the Natural Product Saprorthoquinone” (Molecules, 2020)
Where two headings read alike, the source gives them in different places.

What was measured:
IDO1 = molecular target: T1, IDO1 (Homo sapiens, UniProt P14902); assay: IDO1 enzymatic assay; assay type: biochemical; conditions: for IC50: mean ± SD of at least two independent assays
T1 construct: No. 20160706
T1 sequence (P14902 whole entry): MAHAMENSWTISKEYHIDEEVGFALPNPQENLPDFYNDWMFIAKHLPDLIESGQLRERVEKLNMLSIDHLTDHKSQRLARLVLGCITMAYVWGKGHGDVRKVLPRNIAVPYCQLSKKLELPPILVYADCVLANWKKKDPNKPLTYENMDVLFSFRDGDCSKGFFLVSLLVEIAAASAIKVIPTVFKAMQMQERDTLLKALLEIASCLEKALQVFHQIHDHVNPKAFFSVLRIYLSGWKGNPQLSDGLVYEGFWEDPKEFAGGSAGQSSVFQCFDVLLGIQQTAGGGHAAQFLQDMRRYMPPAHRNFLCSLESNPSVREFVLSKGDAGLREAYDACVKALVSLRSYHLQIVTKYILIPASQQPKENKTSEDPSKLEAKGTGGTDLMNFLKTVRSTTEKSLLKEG
Protocol: (1) Prepare 100× compound of the final desired highest inhibitor concentration in reaction by 100% DMSO. For example, if compounds test at 10 μM, then prepare 1 mM of compound solution in this step. Then dilute compound with DMSO in 3-fold mode to obtain different concentrations. Mark as source plate. (2) Add 100 μL of 100% DMSO to column 1 and column 12 for background control and no compound high control respectively.
Transfer 2 μL of each well from the 96-well source plate to a 96-well assay plate.
• (3) Enzyme Reaction • Prepare 2× enzyme solution. Add IDO-1 in assay buffer. • Prepare 2× substrate solution. Add L-tryptophan, ascorbate, methylene blue, catalase in the assay buffer. • Assay plate already contains 2 μL of compound in 100% DMSO. • Transfer 2× enzyme solution to the assay plate. Add 100 μL of 2× enzyme solution to each well of the 96-well assay plate. • Incubate at room temperature for 10 min. • Transfer […] to each well of the 96-well assay plate. • Read OD321 kinetically by Spectramax (Molecular Devices, LLC, San Jose, CA, USA). • (4) Curve Fitting • Copy data from Spectramax program. Percent inhibition = (max-conversion)/(max − min) × 100. “max” stands for high control; “min” stands for low control. • Fit the data in XL-Fit to obtain IC50 values. Equation used is: Y = Bottom + (Top − Bottom)/(1 + 10^((LogIC50 − X) × Hill Slope)

A549 cell line = assay: Anti-proliferation assay in A549 cell line (CellTiter-Glo); assay type: cell-based; conditions: Homo sapiens; A549 cells, 48 h, CTG assay
Protocol: Cell viability was measured by the CellTiter-Glo Luminescent (CTG) assay. A549 cells (ATCC, Cat. No.CCL-185) were seeded (2000 cells/well) in 96-well plates and cells were left to incubate at 37 °C for 24 h. After 24 h, prepare compounds with 5-fold dilution in DMSO to the compound plate (200-fold of the final concentration) and transfer 5 μL from the compound plate to 95 μL intermediate medium in the intermediate plate (10-fold of the final concentration). Then transfer 10 μL from the intermediate plate to the cell plates. The final DMSO is 0.5%. After continuing to incubate for 48 h, add 50 μL CTG reagent to each well and read luminescence according to CTG product manual.

HDAC1 = molecular target: T2, HDAC1 (Homo sapiens, UniProt Q13547); assay: HDAC enzymatic assay; assay type: biochemical; conditions: mean ± SD of at least two independent assays
T2 construct: purchased BPS Bioscience Inc. 50051
T2 sequence (Q13547 whole entry): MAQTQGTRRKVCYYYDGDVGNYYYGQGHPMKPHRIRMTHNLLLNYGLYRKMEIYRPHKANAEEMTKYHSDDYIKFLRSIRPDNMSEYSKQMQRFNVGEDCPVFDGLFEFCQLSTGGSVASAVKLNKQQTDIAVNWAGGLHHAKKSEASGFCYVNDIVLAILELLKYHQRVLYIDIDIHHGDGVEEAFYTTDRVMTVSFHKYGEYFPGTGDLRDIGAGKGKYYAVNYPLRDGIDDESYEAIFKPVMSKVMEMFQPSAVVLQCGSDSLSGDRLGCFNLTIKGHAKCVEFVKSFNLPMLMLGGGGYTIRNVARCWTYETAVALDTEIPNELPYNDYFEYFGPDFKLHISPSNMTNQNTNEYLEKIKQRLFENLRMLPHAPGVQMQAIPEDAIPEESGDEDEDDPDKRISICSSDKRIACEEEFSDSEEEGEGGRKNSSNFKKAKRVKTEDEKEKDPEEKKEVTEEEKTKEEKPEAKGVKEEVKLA
Protocol: • (1) Prepare 1× assay buffer (modified Tris Buffer). • (2) Compound serial dilution: Transfer compounds to assay plate by Echo in 100% DMSO. The final fraction of DMSO is 1%. • (3) Prepare enzyme solution in 1× assay buffer. • (4) Add trypsin and Ac-peptide substrate in 1× assay buffer to make the substrate solution. • (5) Transfer 15 μL of enzyme solution to assay plate or for low control transfer 15 μL of 1× assay buffer. • (6) Incubate at room temperature for 15 min. • (7) Add 10 μL of substrate solution to each well to start reaction. • (8) Incubate at room temperature for 60 min. • (9) Read the plate on Synergy MX with excitation at 355 nm and emission at 460 nm. • (10) Curve fitting: Fit the data in Excel to obtain inhibition values using Equation (1).
Inh% = (Max − Signal)/(Max − Min) × 100(1)
Fit the data in XL-Fit to obtain IC50 values using Equation (2); Y = Bottom + (Top − Bottom)/(1 + 10^((LogIC50 − X) × Hill Slope))(2)
Y is %inhibition and X is compound concentration.

[1] = 10 μM, Table 1 natural products, read-out: IDO1 Inhibition @ 10 μM (%)
[2] = 10 μM, Tables 2 and 3, read-out: IDO1 % Inhibition at 10 μM (converted)
[3] = 10 μM, Table 1 natural products

Row | Compound | inhibition at 10 µM (IDO1; [1]) | inhibition at 10 µM (IDO1; [2]) | IC50 (A549 cell line) | further results
1 | CC(C)=CCCc1c(C)ccc2c1C(=O)C(=O)C(C(C)C)=C2 [Compound 1, saprorthoquinone] | 85% | 85% | 9.97 µM | IC50 (IDO1): 1.76 ± 0.27 µM
2 | Cc1coc2c1C(=O)C(=O)c1c-2ccc2c(C)cccc12 [Compound 4] | 65% |  |  | 
3 | CC(C)C1=Cc2ccc3c(c2C(=O)C1=O)CCCC3(C)C [Compound 5] |  |  |  | inhibition at 10 µM (IDO1; read-out: IDO1 Inhibition @ 10 μM (%)): 81%
4 | CC1COC2=C1C(=O)C(=O)c1c2ccc2c1CCCC2(C)C (centres unmarked) [Compound 6] | 66% |  |  | 
5 | Cc1ccc2c(c1CCC(=O)C(C)C)C(=O)C(=O)C(C(C)C)=C2 [Compound 7] | 86% |  |  | 
6 | Cc1ccc2c(c1C(=O)CCC(C)(C)O)C(=O)C(=O)C(C(C)C)=C2 [Compound 8] | 73% |  |  | 
7 | COC(=O)[C@@]1(C)CCCc2c1ccc1c2C(=O)C(=O)C2=C1OCC2C (some centres unmarked) [Compound 9] | 61% |  |  | 
8 | CC(C)C1=C(O)C(=O)C2=C(CC[C@H]3C(C)(C)CCC[C@]23C)C1=O [Compound 10] | 2% |  |  | IDO1 Inhibition @ 10 μM (%) (IDO1; [3]): almost lost their activity
9 | Cc1ccc2c(c1CCCC(C)(C)O)C(=O)C(O)=C(C(C)C)C2=O [Compound 11] | 2% |  |  | IDO1 Inhibition @ 10 μM (%) (IDO1; [3]): almost lost their activity
10 | Cc1cccc2c3c(ccc12)C(=O)C(C(C)C)=C(O)C3=O [Compound 12] | 13% |  |  | 
11 | CC(C)C1=CC(=O)C([C@@]2(C)CCCC(C)(C)[C@@H]2CC=O)=CC1=O [Compound 13] | 6% |  |  | 
12 | CC(C)=CCCc1c(C)ccc2c1C(=O)C(O)=C(C(C)C)C2=O [Compound 14] | 30% |  |  | 
13 | CC(C)C1=C(O)C(=O)C23OC2(C(=O)CC2C(C)(C)CCCC23C)C1=O (centres unmarked) [Compound 15] | 3% |  |  | IDO1 Inhibition @ 10 μM (%) (IDO1; [3]): almost lost their activity
14 | Cc1ccc2c(c1/C=C\C(=O)C(C)(C)O)C(=O)C(O)=C(C(C)C)C2=O [Compound 16] | 3% |  |  | IDO1 Inhibition @ 10 μM (%) (IDO1; [3]): almost lost their activity
15 | Cc1ccc2c(c1CCC(O)C(C)(C)O)C(=O)C(=O)C(C(C)C)=C2 (centres unmarked) [Compound 17, 8-(3,4-Dihydroxy-4-methylpentyl)-3-isopropyl-7-methylnaphthalene-1,2-dione] |  | 90% | 12.8 µM | IC50 (IDO1): 0.74 ± 0.15 µM
16 | Cc1ccc2c(c1CCC(=O)O)C(=O)C(=O)C(C(C)C)=C2 [Compound 18, 3-(6-Isopropyl-2-methyl-7,8-dioxo-7,8-dihydronaphthalen-1-yl)propanoic acid] |  | 86% | > 20 µM | IC50 (IDO1): 0.99 ± 0.24 µM

Row | Compound | inhibition at 10 µM (IDO1; [1]) | inhibition at 10 µM (IDO1; [2]) | IC50 (A549 cell line) | further results
17 | Cc1ccc2c(c1CCC(N)=O)C(=O)C(=O)C(C(C)C)=C2 [Compound 19, 3-(6-Isopropyl-2-methyl-7,8-dioxo-7,8-dihydro-naphthalen-1-yl)propanamide] |  | 78% | 14.5 µM | IC50 (IDO1): 0.51 ± 0.04 µM
18 | Cc1ccc2c(c1CCC(=O)Nc1cccc(F)c1)C(=O)C(=O)C(C(C)C)=C2 [Compound 21a, N-(3-Fluorophenyl)-3-(6-isopropyl-2-methyl-7,8-dioxo-7,8-dihydronaphthalen-1-yl)propanamide] |  | 80% | 13.1 µM | IC50 (IDO1): 1.33 ± 0.01 µM
19 | Cc1ccc2c(c1CCC(=O)Nc1ccc(F)cc1)C(=O)C(=O)C(C(C)C)=C2 [Compound 21b, N-(4-Fluorophenyl)-3-(6-isopropyl-2-methyl-7,8-dioxo-7,8-dihydronaphthalen-1-yl)propanamide] |  | 64% | 14.8 µM | 
20 | Cc1ccc2c(c1CCC(=O)Nc1ccc(C(F)(F)F)cc1)C(=O)C(=O)C(C(C)C)=C2 [Compound 21c, 3-(6-Isopropyl-2-methyl-7,8-dioxo-7,8-dihydronaphthalen-1-yl)-N-(4-(trifluoromethyl)phenyl)propanamide] |  | 64% | 7.49 µM | 
21 | Cc1ccc2c(c1CCC(=O)Nc1ccc(F)c(Br)c1)C(=O)C(=O)C(C(C)C)=C2 [Compound 21d, N-(3-Bromo-4-fluorophenyl)-3-(6-isopropyl-2-methyl-7,8-dioxo-7,8-dihydronaphthalen-1-yl)propanamide] |  | 65% | 9.31 µM | 
22 | COc1ccc(NC(=O)CCc2c(C)ccc3c2C(=O)C(=O)C(C(C)C)=C3)cc1 [Compound 21e, 3-(6-Isopropyl-2-methyl-7,8-dioxo-7,8-dihydronaphthalen-1-yl)-N-(4-methoxyphenyl)propanamide] |  | 66% | > 20 µM | 
23 | Cc1ccc2c(c1CCC(=O)NCc1c[nH]c3ccccc13)C(=O)C(=O)C(C(C)C)=C2 [Compound 21f, N-((1H-indol-3-yl)methyl)-3-(6-isopropyl-2-methyl-7,8-dioxo-7,8-dihydronaphthalen-1-yl)propanamide] |  | 79% | > 20 µM | 
24 | Cc1ccc2c(c1CCC(=O)NCc1cn(C)c3ccccc13)C(=O)C(=O)C(C(C)C)=C2 [Compound 21g, 3-(6-Isopropyl-2-methyl-7,8-dioxo-7,8-dihydronaphthalen-1-yl)-N-((1-methyl-1H-indol-3-yl)methyl)-propanamide] |  | 74% | 12.2 µM | 
25 | Cc1ccc2c(c1CCCOS(C)(=O)=O)C(=O)C(=O)C(C(C)C)=C2 [Compound 24a, 3-(6-Isopropyl-2-methyl-7,8-dioxo-7,8-dihydronaphthalen-1-yl)propyl methanesulfonate] |  | 91% | 11.8 µM | IC50 (IDO1): 0.72 ± 0.13 µM
26 | CCS(=O)(=O)OCCCc1c(C)ccc2c1C(=O)C(=O)C(C(C)C)=C2 [Compound 24b, 3-(6-Isopropyl-2-methyl-7,8-dioxo-7,8-dihydronaphthalen-1-yl)propyl ethanesulfonate] |  | 87% | 15.5 µM | 
27 | Cc1ccc2c(c1CCCOS(N)(=O)=O)C(=O)C(=O)C(C(C)C)=C2 [Compound 24c, 3-(6-Isopropyl-2-methyl-7,8-dioxo-7,8-dihydronaphthalen-1-yl)propyl sulfamate] |  | 86% | 11.1 µM | 
28 | Cc1ccc2c(c1CCC(=O)Nc1ccccc1N)C(=O)C(=O)C(C(C)C)=C2 [Compound 27a, N-(2-Aminophenyl)-3-(6-isopropyl-2-methyl-7,8-dioxo-7,8-dihydronaphthalen-1-yl)propanamide] |  | 88% | 17.8 µM | IC50 (IDO1): 0.72 ± 0.1 µM; IC50 (HDAC1): > 100 µM
29 | Cc1ccc2c(c1CCC(=O)Nc1cc(F)ccc1N)C(=O)C(=O)C(C(C)C)=C2 [Compound 27b, N-(2-Amino-5-fluorophenyl)-3-(6-isopropyl-2-methyl-7,8-dioxo-7,8-dihydronaphthalen-1-yl)propanamide] |  | 84% | 9.51 µM | IC50 (HDAC1): > 100 µM
30 | Cc1ccc2c(c1CCC(=O)Nc1ccc(F)cc1N)C(=O)C(=O)C(C(C)C)=C2 [Compound 27c, N-(2-amino-4-fluorophenyl)-3-(6-isopropyl-2-methyl-7,8-dioxo-7,8-dihydronaphthalen-1-yl)propanamide] |  | 56% | > 20 µM | IC50 (HDAC1): > 100 µM
31 | Cc1ccc2c(c1CCC(=O)NCCC(=O)Nc1ccccc1N)C(=O)C(=O)C(C(C)C)=C2 [Compound 33a, N-(2-aminophenyl)-3-(3-(6-isopropyl-2-methyl-7,8-dioxo-7,8-dihydronaphthalen-1-yl)propanamido)-propanamide] |  | 89% | > 20 µM | IC50 (HDAC1): > 100 µM
